# Measured values reported in patent US20230226072A1 (priority 2020, published 2023).
# Test system: Influenza A N1H1
# Assay: In vivo antiviral efficacy in Balb/c mice, lung virus titer by TCID50 assay
# Details: methylene blue replaced by riboflavin; prophylactic and therapeutic application
# Procedure: Mice received a daily MB-dose of 5 mg/kg based on a daily drinking volume of ˜5-6 ml and a body weight of 25-35 g. The control group received drinking water with saccharin but without methylene blue.
# Mice were euthanized and lungs were removed on day 3 post challenge with influenza H1N1 virus. These tissue samples were stored at <−60° C. until they were transferred into homogenization tubes containing 1 ml cell medium supplemented with antibiotics. The lungs were homogenized two times at 5000 rpm for twenty seconds with 10 seconds pause between the intervals with a tissue homogenizer. The infectious H1N1 virus titer in homogenized lung samples was determined by a TCID50 assay performed by titration on Madin-Darby Canine Kidney (MDCK) cells as described above.
smiles,measurement,value
"Cc1cc2nc3c(=O)[nH]c(=O)nc-3n(C[C@H](O)[C@H](O)[C@H](O)CO)c2cc1C [riboflavin, 7,8-dimethyl-10-[(2S,3S,4R)-2,3,4,5-tetrahydroxypentyl]benzo[g]pteridine-2,4-dione]","viricidal efficacy, lung virus titer (TCID50 assay), expected",Analogous results are expected
